This note sets out measurements from US8088817B2, “Pyrrole derivative having, as substituents, ureido group, aminocarbonly group and bicyclic group which may have substituent” (Santen Pharmaceutical Co., Ltd., priority 2008, dated 2012).

SMILES strings stand for the structures.

This assay relates to TNF-α-induced IL-6 production in normal human skin fibroblast-derived CCD-1059Sk cells. Briefly: Test for measurement of inhibitory activity against TNF-α-induced IL-6 production in CCD-1059Sk cells (HTRF Human IL-6 kit). It counts as cell-based. The settings on record: test compound at 10 μM; TNF-α-stimulated CCD-1059Sk cells, 16 hours; inhibition ratio which is 100% or more is indicated to be 100%. On the procedure: 1. Test for Measurement of Inhibitory Activity Against IL-6 Production
An inhibitory effect on TNF-α-induced IL-6 production in normal human skin fibroblast-derived CCD-1059Sk cells (ATCC No. CRL-2072) was evaluated. The amount of IL-6 was determined by the homogeneous time-resolved fluorescence method using HTRF™ Human IL-6 kit (Cat. No. 62IL6PEB, manufactured by CIS-Bio international, Inc.). Specific test methods will be described below.
(Preparation of Test Compound Solution)
After a test compound was dissolved in dimethyl sulfoxide, the resulting solution was diluted with D-MEM medium containing 0.1% heat-inactivated fetal bovine serum, 0.1 mM MEM non-essential amino acid solution, 100 U/mL penicillin and 100 μg/mL streptomycin (hereinafter referred to as “medium”), whereby a 40 μM test compound solution was prepared.
(Test Method and Measurement Method)
1) CCD-1059Sk cells prepared at a density of 3×10^5 cells/mL were inoculated in a 384-well plate in an amount of 10 μL per well such that the cell density was 3×10^3 cells/well.
2) After the plate was incubated at 37° C. for several hours in a CO2 incubator, 5 μL of the test compound solution was added to each well.
3) After the plate was incubated at 37° C. for 1 hour in a CO2 incubator, 5 μL of a 40 ng/mL TNF-α solution was added to each well.
4) After the plate was incubated at 37° C. for 16 hours in a CO2 incubator, 10 μL of a cryptate-labeled anti-IL-6 antibody and an XL665-labeled anti-IL-6 antibody containing potassium fluoride were added to each well.
5) After the plate was incubated at room temperature for several hours, a fluorescence intensity ratio (665 nm/620 nm) was determined for each well using a multimode plate reader Analyst™ HT (manufactured by Molecular Device Corporation) and Criterion Host software version 2.00 (manufactured by Molecular Device Corporation), and then, the amount of IL-6 was calculated.
6) The same procedures as in the above 1) to 5) were performed except that 0.4% dimethyl sulfoxide was added in place of the test compound, and the obtained result was designated as the control.
7) The same procedures as in the above 1) to 5) were performed except that 0.4% dimethyl sulfoxide and the medium were added in place of the test compound and the TNF-α solution, respectively, and the obtained result was designated as the background.
(Calculation Formula of IL-6 Production Inhibition Ratio)
An IL-6 production inhibition ratio (%) was calculated from the following equation. IL-6 Production Inhibition Ratio(%)=100×{1−[(Amount of IL-6 for Test Compound)−(Amount of IL-6 for Background)]/[(Amount of IL-6 for Control)−(Amount of IL-6 for Background)]} (Evaluation Results)
As for `NC(=O)Nc1[nH]c(-c2ccc3ccccc3c2)cc1C(N)=O` [Compound No. 1-1, 2-Aminocarbonylamino-5-(2-naphthyl)pyrrole-3-carboxamide], the “IL-6 production inhibition ratio (%)” value is 90%.

As to `NC(=O)Nc1[nH]c(-c2cc3ccccc3o2)cc1C(N)=O` [Compound No. 1-5, 2-Aminocarbonylamino-5-(benzofuran-2-yl)pyrrole-3-carboxamide], the “IL-6 production inhibition ratio (%)” value is given as 98%.

In the case of `NC(=O)Nc1[nH]c(-c2ccc3sccc3c2)cc1C(N)=O` [Compound No. 1-6, 2-Aminocarbonylamino-5-(benzothiophen-5-yl)pyrrole-3-carboxamide], the “IL-6 production inhibition ratio (%)” value is given as 95%.

For `NC(=O)Nc1[nH]c(-c2ccc3occc3c2)cc1C(N)=O` [Compound No. 1-8, 2-Aminocarbonylamino-5-(benzofuran-5-yl)pyrrole-3-carboxamide], the “IL-6 production inhibition ratio (%)” value was found to be 86%.

In the case of `NC(=O)Nc1[nH]c(-c2cccc3c2OCCO3)cc1C(N)=O` [Compound No. 1-12, 2-Aminocarbonylamino-5-(2,3-dihydro-1,4-benzodioxin-5-yl)pyrrole-3-carboxamide], the “IL-6 production inhibition ratio (%)” value amounted to 97%.

Regarding `Cc1c(-c2cc(C(N)=O)c(NC(N)=O)[nH]2)sc2ccccc12` [Compound No. 1-15, 2-Aminocarbonylamino-5-(3-methylbenzothiophen-2-yl)pyrrole-3-carboxamide], the “IL-6 production inhibition ratio (%)” value came to 98%.

Consider `NC(=O)Nc1[nH]c(-c2cccc3c2OCC3)cc1C(N)=O` [Compound No. 3-1, 2-Aminocarbonylamino-5-(2,3-dihydrobenzofuran-7)pyrrole-3-carboxamide], for which the “IL-6 production inhibition ratio (%)” value is recorded as at least 100%.
